A word on the GI50: it is the concentration at which growth is held to half of that of the control. By TGI is commonly meant the concentration giving total growth inhibition. Higher therefore signals less potent growth arrest.

Where “and” joins values, the source holds several entries; their conditions need not be identical. Equal values may be shown once.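 Protocol summary: plate cells (96-well), add compound at 5 concentrations, incubate 48 h, interpolate endpoints linearly. The concentration for 50% growth inhibition is given as GI50. TGI marks complete inhibition of growth.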

Experimental findings from PubChem BioAssay (NCI) are described below.

Common to all, as to test: DTP human tumour cell line panel, 48 h
The test system of test [1] is 786-0 renal.
The test system of test [2] is A549 NSCLC.
Test [3] relates to DU-145 prostate.
The test system of test [4] is EKVX NSCLC.
Test [5] relates to HT29 colon.
Test [6] has as its system KM12 colon.
Test [7] relates to MCF7 breast.
Test [8] concerns RPMI-8226 leukemia.
Test [9] deals with SF-268 CNS.
In test [10] the test system is SK-MEL-5 melanoma.

Regarding `CC[C@@]1(O)C(=O)OCc2c1cc1n(c2=O)Cc2c-1nc1cc3c(cc1c2C)OCO3`, the GI50 is below 0.0001 µM in test [1]; below 0.0001 µM in test [2]; below 0.0001 µM in test [3]; below 0.0001 µM in test [5]; 0.0241 µM in [6]; below 0.0001 µM in test [7]. For the same molecule, the GI50 is below 0.0001 µM in test [8], 0.00108 µM in test [9] and below 0.0001 µM in test [10]. Further, the total growth inhibition concentration (TGI) in test [1] was 8.15 µM; in test [2], 0.0737 µM; in [3], above 100 µM; in [4] it was 0.818 µM; in test [5], above 100 µM; in [6] it was above 100 µM. The total growth inhibition concentration (TGI) was found to be 0.299 µM in test [7], 0.23 µM in [8], 0.0136 µM in test [9] and 0.0559 µM in [10].
On to `C=C(CN1CCN(c2cccc(C(F)(F)F)n2)CC1)c1ccc(C(=S)Nc2ccccc2N)cc1`, for which the GI50 was 4.29 µM in test [1]; 3.32 µM in test [2]; 6.99 µM in [3]; 4.47 µM in [4]; 3.05 µM in test [5]; 4.04 µM in test [6]. Further, the GI50 in [7] was 2.87 µM; in [9], 8.08 µM; in test [10], 1.46 µM. Also, the TGI in [1] was above 100 µM; in test [2], above 100 µM; in test [3] it was above 100 µM; in test [4], above 100 µM; in [5] it was 18.2 µM; in test [6], above 100 µM. Besides, the total growth inhibition concentration (TGI) in test [7] is 14.5 µM; in test [9] it was above 100 µM; in test [10], 3.17 µM.
Consider `C/C(=C\COc1c2c(cc3c1CCO3)OC1(C=C2)OC(CC/C(C)=C/COc2c3ccoc3cc3oc(=O)ccc23)C(C)(C)O1)CCC(O)C(C)(C)O` (centres undefined), for which the GI50 in test [1] is above 100 µM; in [2], 13.3 µM; in test [3] it was above 100 µM; in test [4] it was 5.93 µM; in test [5] it was 22.4 µM; in [6], 11.7 µM. The GI50 in test [7] was 5.62 µM; in [8], 2.95 µM; in [9] it was 21.1 µM; in test [10], 8.85 µM. Besides, the total growth inhibition concentration (TGI) in test [1], in [2], in test [3], in test [4], in test [5] and in test [6] was above 100 µM each time. The TGI is above 100 µM in test [7], 23.2 µM in test [8], above 100 µM in test [9] and above 100 µM in test [10].
`O=C(NN=C1CCCCC1)c1[nH]c2ccc(F)cc2c1-c1ccccc1`: the GI50 in test [1] was 44.2 µM; in test [2] it was 42.9 µM; in test [3] it was 92.2 µM; in test [4], 63.2 µM; in [5] it was 20.9 µM; in test [6], 44.7 µM. The GI50 is 26.8 µM in [7], 40.5 µM in test [8], 18.9 µM in test [9] and 34.3 µM in [10]. Further, the TGI in test [1] is above 100 µM; in test [2], above 100 µM; in test [3], above 100 µM; in test [4] it was above 100 µM; in [5], 46.5 µM; in test [6] it was above 100 µM. For the same molecule, the total growth inhibition concentration (TGI) in test [7] was 80.4 µM; in test [8] it was above 100 µM; in test [9] it was above 100 µM; in [10] it was above 100 µM.
Take `COc1ccc(OC)c(-c2cc(=O)c3c(OC)c(OC)c(OC)c(OC)c3o2)c1`: the TGI is 92.2 µM in test [1]; above 100 µM in test [2]; above 100 µM in test [3]; above 100 µM in test [4]; above 100 µM in test [5]; 55.5 µM in [7]. The values for the TGI in test [8], in [9] and in [10] were 76 µM, above 100 µM and 39.1 µM, respectively.
Turning to `CN(C)CCOC(c1ccccc1)c1ccccc1`, the GI50 in [1] is 35.1 µM; in test [2] it was 35.9 µM; in test [3] it was 40.3 µM; in test [5], 23.8 µM; in test [6] it was 32.8 µM; in test [7], 36.5 µM. In [10], the GI50 is 15.7 µM. Also, the TGI in test [1] is 49.8 µM and > 100 µM; in test [2], 51.7 µM and > 100 µM; in test [3], 55.8 µM and > 100 µM; in [4], above 100 µM; in test [5] it was 45.5 µM and > 100 µM; in test [6] it was 68.1 µM and > 100 µM. Moreover, the TGI in test [7] was 54 µM and > 100 µM; in [8] it was above 100 µM; in [10] it was 28.2 µM and > 100 µM.
Turning to `CC(=O)C1(N=Nc2ccc(S(N)(=O)=O)cc2)CCOC1=O` (centres undefined), the TGI in test [1], in test [2], in [3], in [4], in test [5] and in test [6] was above 100 µM each time. Also, the TGI in test [7], in [9] and in [10] was above 100 µM in each case.
For the molecule `CN(C)CCCNC(=O)c1cncnc1Nc1ccc(OCc2cccc(F)c2)c(Cl)c1`, the GI50 in test [1] is 1.66 µM; in test [2], 1.71 µM; in test [3], 1.76 µM; in test [4] it was 1.58 µM; in test [5], 1.71 µM; in [6], 1.74 µM. For the same molecule, the figures for the GI50 in [7], in test [9] and in test [10] were 1.56 µM, 1.81 µM and 1.71 µM, respectively. In addition, the TGI in [1] is 3.1 µM; in test [2] it was 3.37 µM; in test [3], 3.2 µM; in [4], 3.15 µM; in [5], 3.34 µM; in test [6], 3.33 µM. The total growth inhibition concentration (TGI) was 3.06 µM in [7], 3.34 µM in [9] and 3.08 µM in [10].
Take `Cc1ccc(-c2nc(N3CCCNCC3)c3oc(-c4ccccc4)nc3n2)cc1`: the GI50 in test [1] was 1.43 µM; in [2], 1.71 µM; in [3] it was 1.89 µM; in test [4], 1.81 µM; in test [5], 1.69 µM; in test [6], 1.89 µM. The values for the GI50 in test [7], in [9] and in [10] were 1.59 µM, 1.83 µM and 1.6 µM, respectively. Further, the TGI is 2.81 µM in test [1]; 3.12 µM in test [2]; 3.4 µM in test [3]; 3.33 µM in test [4]; 3.15 µM in test [5]; 3.45 µM in test [6]. Moreover, the concentration for total growth inhibition (TGI) in test [7] was found to be 3.44 µM; in test [9] it was 3.66 µM; in test [10], 3.03 µM.
For `N#CC1=C(N)NC(=S)NC12Nc1ccccc1N2`, the GI50 was 51.7 µM in test [1]; 37.6 µM in test [2]; 65.3 µM in test [3]; 65.6 µM in test [4]; 23.6 µM in [6]; 22.7 µM in test [7]. The GI50 in [8] is 21.7 µM; in test [9] it was 18.6 µM; in test [10] it was 18.1 µM. Further, the total growth inhibition concentration (TGI) in [1], in test [2], in [3], in test [4], in test [6] and in [7] was above 100 µM in each case. Further, the TGI in test [8] was above 100 µM; in test [9] it was above 100 µM; in test [10] it was 61 µM.
Consider `O=c1c2c3c(sc2nc(N/N=C/c2ccc(Br)cc2)n1Cc1ccccc1)CCCC3`, for which the GI50 is 3.07 µM in [1]; 46.2 µM in [2]; 90.9 µM in test [3]; 7.76 µM in [4]; above 100 µM in test [5]; above 100 µM in [6]. The GI50 in test [7] was 5.63 µM; in [9] it was 14.1 µM; in test [10] it was 5.88 µM. The concentration for total growth inhibition (TGI) in test [1], in [2], in test [3], in test [4], in test [5] and in [6] was above 100 µM each time. Further, the TGI in [7], in test [9] and in test [10] was above 100 µM in each case.
Take `OCC1OC(n2cnc3c(Cl)nc(Cl)cc32)C(O)C1O` (centres undefined): the GI50 in test [1], in [2], in [3], in test [4], in test [5] and in [6] was above 100 µM each time. Moreover, the GI50 in test [7], in test [8] and in test [9] was above 100 µM each time. Besides, the total growth inhibition concentration (TGI) in test [1], in test [2], in [3], in [4], in test [5] and in test [6] was above 100 µM each time. Further, the concentration for total growth inhibition (TGI) in test [7], in test [8] and in [9] was above 100 µM throughout.
For `O=C1OC(c2ccccc2)(c2cc(Br)c(O)c(Br)c2)c2ccccc21` (centres undefined), the GI50 is 19.3 µM in test [1]; 31.3 µM in test [2]; 27.4 µM in [3]; 31.7 µM in test [4]; 21.9 µM in [6]; 23.8 µM in [7]. Moreover, the GI50 in [8] was 28.7 µM; in test [9], 28.8 µM; in test [10], 14.5 µM. The TGI in test [1] is 38.7 µM; in [2] it was above 100 µM; in [3], above 100 µM; in test [4], above 100 µM; in [6], 60.5 µM; in test [7], 78.7 µM. Also, the figures for the TGI in test [8], in [9] and in test [10] were 78.5 µM, above 100 µM and 30.7 µM, respectively.
